Like-named read-outs stand apart in the source and are kept apart here.
What was measured:
DENV-2 NGC [1] = test: Antiviral activity against DENV-2 NGC in Vero-B cells (viral RNA load by RT-qPCR); assay type: cell-based, Dengue virus; settings: DENV-2 in Vero-B cells, inhibition of viral RNA replication by 50% (Table 3)
[2] = system: DENV-1 Djibouti strain D1/H/IMTSSA/98/606; test: Antiviral activity against DENV-1 in Vero-B cells (viral RNA load by RT-qPCR); assay type: cell-based, Dengue virus
[3] = system: DENV-3 strain H87 prototype; test: Antiviral activity against DENV-3 in Vero-B cells (viral RNA load by RT-qPCR); assay type: cell-based, Dengue virus
[4] = system: DENV-4 strain Dak HD 34 460; test: Antiviral activity against DENV-4 in Vero-B cells (viral RNA load by RT-qPCR); assay type: cell-based, Dengue virus
[5] = system: uninfected quiescent Vero-B cells; test: Cytotoxic assay in uninfected quiescent Vero-B cells (MTS/PMS); settings: 4 days (Table 3)
DENV-2 NGC [6] = test: Antiviral activity against DENV-2 NGC in A549 cells (viral RNA load by RT-qPCR); assay type: cell-based; settings: Dengue virus, DENV2; DENV-2 in A549 cells (Table 6)
[7] = Cytotoxicity in A549 cells (MTS/PMS); assay type: cell-based; settings: human; A549 cells (Table 6)
Experimental: A similar protocol was used to assess cytotoxicity in A549 cells with the difference that cells were seeded at 2×10^4 cells/well.

in vitro = settings: African green monkey, uninfected quiescent Vero-B cells

SMILES | EC50 (DENV-2 NGC [1]) [µM] | EC50 [2] [µM] | EC50 [3] [µM] | EC50 [4] [µM] | CC50 [5] [µM] | EC50 ([4]; Dengue virus, DENV4, Vero B) [µM] | EC50 (DENV-2 NGC [1]; Dengue virus, DENV2, Vero B) [µM] | EC50 ([2]; Dengue virus, DENV1, Vero B) [µM] | EC50 ([3]; Dengue virus, DENV3, Vero B) [µM] | EC50 (DENV-2 NGC [6]) [µM] | CC50 at 4 days [7] [µM] | CC50 at 4 days (in vitro) [µM]
COc1cncc(NC(C(=O)c2c[nH]c3ccccc23)c2ccccc2)c1 (single isomer, unassigned) [CPD-300] | 1.29 | 5.29 | 21.1 | 4.13 | 50 | – | – | – | – | – | – | –
COc1cncc(NC(C(=O)c2c[nH]c3ccc(F)cc23)c2ccc(OC)nc2)c1 (single isomer, unassigned) [CPD-323] | 0.35 | 3.62 | 4.99 | – | 58 | – | – | – | – | – | – | –
COc1cccc(NC(C(=O)c2c[nH]c3ccccc23)c2cc3ccccn3n2)c1 (single isomer, unassigned) [CPD-324] | 0.01 | 0.27 | 0.19 | – | 30 | 5.32 | – | – | – | – | – | –
COc1cccc(NC(C(=O)c2c[nH]c3ccccc23)c2cc3ccccn3n2)c1 (single isomer, unassigned) [CPD-325] | 0.09 | 0.87 | 1.84 | 7.16 | 68 | – | – | – | – | – | – | –
COc1cc(NC(C(=O)c2c[nH]c3ccccc23)c2ccccc2)cc(OC)c1 (single isomer, unassigned) [CPD-326] | 0.001 | 0.05 | 0.09 | – | 13 | 1.89 | – | – | – | – | – | –
COc1cc(NC(C(=O)c2c[nH]c3ccccc23)c2ccccc2)cc(OC)c1 (single isomer, unassigned) [CPD-327] | 0.35 | 1.42 | 4.61 | 2.25 | 11 | – | – | – | – | – | – | –
COc1cccc(NC(C(=O)c2c[nH]c3ccccc23)c2ccncc2)c1 (stereo not shown) [CPD-020] | – | – | – | – | 16 | – | 0.14 | 15.1 | – | – | – | –
COc1cccc(NC(C(=O)c2c[nH]c3ccccc23)c2ccsc2)c1 (stereo not shown) [CPD-027] | – | – | – | – | 15 | 3.7 | 0.13 | 2.1 | 9.9 | – | – | –
COc1cccc(NC(C(=O)c2c[nH]c3ccccc23)c2ccc(C#N)cc2)c1 (stereo not shown) [CPD-036] | – | – | – | – | 14 | 5.85 | 0.04 | 2.43 | 3.42 | – | – | –
COc1cccc(NC(C(=O)c2c[nH]c3cccc(Cl)c23)c2ccccc2)c1 (stereo not shown) [CPD-053] | – | – | – | – | 18 | 7.11 | 0.02 | 1.64 | 11.2 | – | – | –
COc1cncc(NC(C(=O)c2c[nH]c3ccccc23)c2ccccc2)c1 (stereo not shown) [CPD-067] | – | – | – | – | 20 | – | 0.04 | < 0.5 | 1.2 | – | – | –
COc1cccc(NC(C(=O)c2c[nH]c3cc(OC)ccc23)c2ccccc2)c1 (stereo not shown) [CPD-077] | – | – | – | – | 13 | 4.27 | 0.04 | 1.42 | 2.07 | – | – | –
COc1cccc(NC(C(=O)c2c[nH]c3ccccc23)c2cc3ccccn3n2)c1 (stereo not shown) [CPD-083] | – | – | – | – | 26 | 2.52 | 0.03 | 0.54 | 0.71 | – | – | –
COc1cccc(NC(C(=O)c2c[nH]c3cc(Cl)ccc23)c2ccccc2)c1 (stereo not shown) [CPD-118] | – | – | – | – | 13 | – | 0.01 | 0.44 | 3.68 | – | – | –
COc1cccc(NC(C(=O)c2c[nH]c3ccc(F)cc23)c2ccccc2)c1 (stereo not shown) [CPD-119] | – | – | – | – | 13 | 2.91 | 0.03 | 0.69 | 1.74 | – | – | –
COc1cccc(NC(C(=O)c2c[nH]c3cc(F)ccc23)c2ccccc2)c1 (stereo not shown) [CPD-123] | – | – | – | – | 15 | 2.64 | 0.05 | 1.6 | 2.56 | – | – | –
COc1cccc(NC(C(=O)c2c[nH]c3ccccc23)c2cccc(C)c2)c1 (stereo not shown) [CPD-138] | – | – | – | – | 20 | – | 0.27 | 3.21 | 6.52 | – | – | –
COc1cccc(NC(C(=O)c2c[nH]c3ccccc23)c2ccc(C)cc2)c1 (stereo not shown) [CPD-139] | – | – | – | – | 20 | 3.81 | 0.02 | 0.65 | 0.46 | – | – | –
COc1cccc(NC(C(=O)c2c[nH]c3ccccc23)c2ccc(F)cc2)c1 (stereo not shown) [CPD-149] | – | – | – | – | 14 | 5.72 | 0.03 | 2.88 | 4.01 | – | – | –
COc1cccc(NC(C(=O)c2c[nH]c3ccccc23)c2ccc(C)nc2)c1 (stereo not shown) [CPD-226] | – | – | – | – | 73 | 8.64 | 0.07 | 0.92 | 0.81 | – | – | –
COc1cccc(NC(C(=O)c2c[nH]c3cccc(F)c23)c2ccccc2)c1 (stereo not shown) [CPD-230] | – | – | – | – | 21 | 2.56 | 0.12 | 0.35 | 3.53 | – | – | –

SMILES | EC50 (DENV-2 NGC [1]) [µM] | EC50 [2] [µM] | EC50 [3] [µM] | EC50 [4] [µM] | CC50 [5] [µM] | EC50 ([4]; Dengue virus, DENV4, Vero B) [µM] | EC50 (DENV-2 NGC [1]; Dengue virus, DENV2, Vero B) [µM] | EC50 ([2]; Dengue virus, DENV1, Vero B) [µM] | EC50 ([3]; Dengue virus, DENV3, Vero B) [µM] | EC50 (DENV-2 NGC [6]) [µM] | CC50 at 4 days [7] [µM] | CC50 at 4 days (in vitro) [µM]
COc1cc(NC(C(=O)c2c[nH]c3ccccc23)c2ccc(F)cc2)cc(OC)c1 (stereo not shown) [CPD-235] | – | – | – | – | 13 | 3.02 | 0.004 | 0.09 | 0.27 | – | – | –
COc1cncc(NC(C(=O)c2c[nH]c3ccccc23)c2ccccc2)n1 (stereo not shown) [CPD-252] | – | – | – | – | 68 | 2.29 | 0.48 | – | 12.6 | – | – | –
CCOc1cc(NC(C(=O)c2c[nH]c3ccccc23)c2ccccc2)cc(OC)c1 (stereo not shown) [CPD-254] | – | – | – | – | 13 | 1.15 | 0.02 | 0.67 | 0.8 | – | – | –
COc1cc(NC(C(=O)c2c[nH]c3ccccc23)c2ccccc2)cc(OCCO)c1 (stereo not shown) [CPD-255] | – | – | – | – | – | 3.36 | 0.04 | 0.75 | 1.66 | 0.029 | 59 | 63
COc1cc(CO)cc(NC(C(=O)c2c[nH]c3ccccc23)c2ccccc2)c1 (stereo not shown) [CPD-262] | – | – | – | – | 71 | 8.49 | 0.06 | 2.33 | 6.73 | – | – | –
COc1cc(NC(C(=O)c2c[nH]c3ccccc23)c2cc3ccccn3n2)cc(OC)c1 (stereo not shown) [CPD-293] | – | – | – | – | – | 1.15 | 0.001 | 0.06 | 0.04 | 0.003 | > 117 | 65
COc1cc(NC(C(=O)c2c[nH]c3ccccc23)c2cnc(OC)cn2)cc(OC)c1 (stereo not shown) [CPD-294] | – | – | – | – | – | 7.21 | 0.02 | 0.23 | 0.67 | 0.015 | 61 | 41
COc1cc(CO)cc(NC(C(=O)c2c[nH]c3ccccc23)c2ccc(C)nc2)c1 (stereo not shown) [CPD-320] | – | – | – | – | – | 9.44 | 0.07 | 0.96 | 1.17 | 0.006 | > 124 | > 124
COc1cc(CO)cc(NC(C(=O)c2c[nH]c3ccc(F)cc23)c2cccnc2)c1 (stereo not shown) [CPD-334] | – | – | – | – | – | 16.8 | 0.07 | 1.29 | 0.81 | 0.024 | 85 | 122
COc1cc(NC(C(=O)c2c[nH]c3ccccc23)c2cc3ccccn3n2)cc(OCCO)c1 (stereo not shown) [CPD-336] | – | – | – | – | – | 5.77 | 0.01 | 0.26 | 0.35 | 0.005 | > 123 | > 123
COc1cc(NC(C(=O)c2cn(C)c3ccccc23)c2ccccc2)cc(OC)c1 (stereo not shown) [CPD-338] | – | – | – | – | – | 1.82 | 0.01 | 0.35 | 0.25 | 0.026 | > 124 | > 124
COc1cc(NC(C(=O)c2nn(C)c3ccccc23)c2ccc(F)cc2)cc(OC)c1 (stereo not shown) [CPD-340] | – | – | – | – | – | 6.39 | 0.02 | 0.18 | 0.24 | 0.027 | > 119 | > 119
COc1cc(NC(C(=O)c2c[nH]c3ccccc23)c2ccc(C)nc2)cc(OC)c1 (stereo not shown) [CPD-346] | – | – | – | – | – | 1.27 | 0.01 | – | 0.04 | 0.008 | 60 | 54
COc1cccc(NC(C(=O)c2c[nH]c3ccccc23)c2ccccc2C)c1 (stereo not shown) [CPD-348] | – | – | – | – | 14 | 3.75 | 0.1 | – | – | – | – | –
COc1cc(NC(C(=O)c2c[nH]c3ccccc23)c2ccc(F)cc2)cc(OCCO)c1 (stereo not shown) [CPD-350] | – | – | – | – | 46 | 3.11 | 0.01 | – | 0.28 | 0.008 | 63 | –
COc1cc(NC(C(=O)c2c[nH]c3ccc(CO)cc23)c2ccccc2)cc(OC)c1 (stereo not shown) [CPD-351] | – | – | – | – | 65 | 9.58 | 0.11 | – | 2.02 | – | – | –
COc1cc(NC(C(=O)c2c[nH]c3cccc(CO)c23)c2ccccc2)cc(OC)c1 (stereo not shown) [CPD-352] | – | – | – | – | 71 | 8.6 | 0.29 | – | 3.03 | – | – | –
COc1cc(NC(C(=O)c2c[nH]c3ccc(CCCO)cc23)c2ccccc2)cc(OC)c1 (stereo not shown) [CPD-353] | – | – | – | – | 56 | 7.18 | 0.1 | – | 0.17 | – | – | –
COc1cc(NC(C(=O)c2cn(C)c3ccccc23)c2cccnc2)cc(OC)c1 (stereo not shown) [CPD-360] | – | – | – | – | – | 5.78 | 0.04 | – | – | 0.027 | > 124 | > 124
COc1cc(NC(C(=O)c2c[nH]c3ccccc23)c2ccccc2)cc(OCCCO)c1 (stereo not shown) [CPD-361] | – | – | – | – | 50 | – | 0.09 | – | – | – | – | –

From patent US12012411B2, “Viral replication inhibitors” (Katholieke Universiteit Leuven, priority 2011, dated 2024)
